Experimental data as given in the NIST ThermoML archive (doi:10.1021/je600573w).

Legend:
[1] = molar heat capacity at constant pressure; details: 101.33 kPa, Liquid, Small sample (50 mg) DSC
[2] = 101.33 kPa, Liquid, Vibrating tube method

Brc1ccccc1 [bromobenzene]
Details	mass density [kg/m3]	molar heat capacity at constant pressure [J/K/mol]
[1], 283.15 K	–	151.63
[1], 285.15 K	–	151.99
[1], 287.15 K	–	152.37
[1], 289.15 K	–	152.75
[1], 291.15 K	–	153.14
[1], 293.15 K	–	153.54
[1], 295.15 K	–	153.94
[1], 297.15 K	–	154.35
[1], 299.15 K	–	154.77
[1], 301.15 K	–	155.19
[1], 303.15 K	–	155.62
[1], 305.15 K	–	156.05
[1], 307.15 K	–	156.49
[1], 309.15 K	–	156.93
[1], 311.15 K	–	157.38
[1], 313.15 K	–	157.83
[1], 315.15 K	–	158.28
[1], 317.15 K	–	158.74
[1], 319.15 K	–	159.2
[1], 321.15 K	–	159.66
[1], 323.15 K	–	160.13
[1], 325.15 K	–	160.6
[1], 327.15 K	–	161.06
[1], 329.15 K	–	161.53
[1], 331.15 K	–	162
[1], 333.15 K	–	162.48
[1], 335.15 K	–	162.95
[1], 337.15 K	–	163.42
[1], 339.15 K	–	163.89
[1], 341.15 K	–	164.36
[1], 343.15 K	–	164.83
[1], 345.15 K	–	165.3
[1], 347.15 K	–	165.76
[1], 349.15 K	–	166.23
[1], 351.15 K	–	166.69
[1], 353.15 K	–	167.15
[2], 288.15 K	1501.95	–
[2], 298.15 K	1488.45	–
[2], 308.15 K	1474.94	–
[2], 318.15 K	1461.39	–
[2], 328.15 K	1447.8	–
[2], 338.15 K	1434.15	–

Clc1ccccc1 [chlorobenzene]
Details	mass density [kg/m3]	molar heat capacity at constant pressure [J/K/mol]
[1], 283.15 K	–	147.73
[1], 285.15 K	–	148.14
[1], 287.15 K	–	148.56
[1], 289.15 K	–	148.99
[1], 291.15 K	–	149.41
[1], 293.15 K	–	149.85
[1], 295.15 K	–	150.29
[1], 297.15 K	–	150.73
[1], 299.15 K	–	151.18
[1], 301.15 K	–	151.64
[1], 303.15 K	–	152.1
[1], 305.15 K	–	152.56
[1], 307.15 K	–	153.03
[1], 309.15 K	–	153.5
[1], 311.15 K	–	153.97
[1], 313.15 K	–	154.45
[1], 315.15 K	–	154.93
[1], 317.15 K	–	155.41
[1], 319.15 K	–	155.9
[1], 321.15 K	–	156.39
[1], 323.15 K	–	156.88
[1], 325.15 K	–	157.37
[1], 327.15 K	–	157.86
[1], 329.15 K	–	158.36
[1], 331.15 K	–	158.86
[1], 333.15 K	–	159.35
[1], 335.15 K	–	159.85
[1], 337.15 K	–	160.35
[1], 339.15 K	–	160.85
[1], 341.15 K	–	161.35
[1], 343.15 K	–	161.85
[1], 345.15 K	–	162.35
[1], 347.15 K	–	162.85
[1], 349.15 K	–	163.34
[1], 351.15 K	–	163.84
[1], 353.15 K	–	164.34
[2], 288.15 K	1111.9	–
[2], 298.15 K	1101.14	–
[2], 308.15 K	1090.34	–
[2], 318.15 K	1079.48	–
[2], 328.15 K	1068.57	–
[2], 338.15 K	1057.58	–
